No end group written: not given here.
What was measured:
E. coli ML-35p = assay: Kinetics of permeabilization of the outer bacteria membrane (nitrocefin); format: cell-based, Escherichia coli
Experimental: The ability of the antimicrobial peptides for the respective permeabilization of the outer and inner bacteria membrane was tested by way of example on E. coli ML-35p (made available by Dr. R. E. Lehrer, Center for Health Sciences, Los Angeles, Calif., USA). The peptides were incubated in serial dilution with E. coli ML-35p and the time-dependent release of cell-internal components was measured in a slightly modified protocol according to Ericsson et al. (2002). For this purpose, the bacteria were cultured in Luria-Bertani (LB) medium with 100 μg/ml ampicillin (Fluka, Taufkirchen, Germany) until reaching an optical density of 0.4 at 600 nm wavelength. Then, the cells were washed three times by centrifugation at 4000 g for 1 min and subsequent up-take in 10 mM HEPES buffer pH 7.2. Finally, the cells were diluted to an optical density of 0.3 at 600 nm wavelength. To measure the permeabilization of the outer membrane, nitrocefin (Merck, Darmstadt, Germany) was diluted in HEPES buffer to a concentration of 60 μg/ml. The antimicrobial peptides were diluted in HEPES buffer to an end concentration of 12 μM, 24 μM, 48 μM and 96 μM end concentration. In the next step, 50 μl of nitrocefin were admixed with 50 μl of antimicrobial peptide and 50 μl of bacteria suspension such that an end concentration of 20 μg/ml of nitrocefin, 4 μM to 32 μM of antimicrobial peptide and bacteria with an optical density of 0.1 to 600 nm were present. The samples were mixed and the absorption at 500 nm wavelength was measured directly over a period of at least 90 min at 37° C. with regular shaking in a FLUOstar omega Microplate Reader (BMG Labtech, Ortenberg, Germany). The investigation of the permeabilization of the inner membrane was carried out in the same way except that instead of the nitrocefin accordingly 0-nitrophenyl-beta-D-galactoside (ONPG, Sigma-Aldrich) in an end concentration of 100 μg/ml was used and the absorption change was determined at a wavelength of 420 nm. The control used was samples without antimicrobial peptide, the positive control used for the membrane permeabilization was polymyxin B (Sigma-Aldrich) in an end concentration of 5 μM. For the data evaluation, firstly the measurement values of the corresponding negative controls were deducted from the measurement values of the samples, and the difference was then divided by the corresponding measurement values of the permeabilization control. Then, a graphical evaluation was carried out, the calculated values being plotted against the peptide concentration and being fitted with the help of the Origin Pro 8.1 G Software (OriginLab) according to a sigmoidal model.
As comparison parameter between the peptides, the times were ascertained from this at which 50% of the final signal level was reached. For this purpose, the equation with the percentage membrane permeabilization y, the time x in minutes, the lower plateau A1, the upper plateau A2, the point of inflection Log X0 and the Hill incline p
[formula] was used. The calculation of the parameters A1, A2, Log X0 and p was performed by the program by reference to the compensating curve. Further resolution of equation 5.1 for the case y=50 then produced for x the desired time at which the half-maximum signal level was reached.

[1] = test system: human histiocytic lymphoma cell line U937; assay: Cytotoxicity, direct membrane damage (CytoTox 96), LD50; format: cell-based; details: U937, two hours at 37° C., 0.25-64 μM
In short: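 Membrane damage in peptide-treated U937 cells measured as LDH release in culture supernatant (30 min substrate, room temperature, dark; absorbance 490 nm). Negative-control signal subtracted and normalized to permeabilization control. LD50 (μM) from sigmoidal fit of relative cytotoxicity (%) versus peptide concentration at 50%.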

Compound	Outer membrane, time to 50% of final signal (E. coli ML-35p; 4 μM peptide)	Outer membrane, time to 50% of final signal (E. coli ML-35p; 8 μM peptide)	Outer membrane, time to 50% of final signal (E. coli ML-35p; 16 μM peptide)	Outer membrane, time to 50% of final signal (E. coli ML-35p; 32 μM peptide)	Toxicity LD50 [1]
KILILIKRK-OH [N4]	54 min	49 min	31 min	17 min	
MPRRRRSSSRPVRRRRRPRVSRRRRRRGGRRR (Protamine) [protamine from salmon, grade IV, histone-free (Sigma-Aldrich)]	<1 min	<1 min	<1 min	<1 min	>64 µM
KRKRKILILIKRK-OH [N1]	21 min	14 min	12 min	11 min	
CC[C@H](C)[C@H](NC(=O)CN)C(=O)NCC(=O)N[C@@H](C)C(=O)N[C@H](C(=O)N[C@@H](CC(C)C)C(=O)N[C@@H](CCCCN)C(=O)N[C@H](C(=O)N[C@@H](CC(C)C)C(=O)N[C@H](C(=O)N[C@H](C(=O)NCC(=O)N[C@@H](CC(C)C)C(=O)N1CCC[C@H]1C(=O)N[C@@H](C)C(=O)N[C@@H](CC(C)C)C(=O)N[C@H](C(=O)N[C@@H](CO)C(=O)N[C@@H](Cc1c[nH]c2ccccc12)C(=O)N[C@H](C(=O)N[C@@H](CCCCN)C(=O)N[C@@H](CCCNC(=N)N)C(=O)N[C@@H](CCCCN)C(=O)N[C@@H](CCCNC(=N)N)C(=O)N[C@@H](CCC(N)=O)C(=O)N[C@@H](CCC(N)=O)C(N)=O)[C@@H](C)CC)[C@@H](C)CC)[C@@H](C)O)[C@@H](C)O)C(C)C)C(C)C [Melittin]					1.4 µM
ILPWKWPWWPWRR [Indolicidin]	>90 min	>90 min	>90 min	>90 min	>64 µM

From patent US10556926B2, “Synthetic artificial peptides with antimicrobial effect” (priority 2014, dated 2020)
